Assay results taken from PubChem BioAssay (NCI).
Several values for one entry are separate records, joined by “and”; a condition that tells them apart may be missing. Equal values may be shown once.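 Assay format: 96-well plates, 48-hour exposure. GI50 marks 50% less growth. TGI: total growth inhibition.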

Legend:
Assay in all cases: NCI tumour cell line growth inhibition, 48 h
HCC-2998 colon = test system: HCC-2998 colon
SK-OV-3 ovarian = test system: SK-OV-3 ovarian
CCRF-CEM leukemia = test system: CCRF-CEM leukemia
NCI-H522 lung = test system: NCI-H522 lung
SK-MEL-28 melanoma = test system: SK-MEL-28 melanoma
MDA-MB-435 = test system: MDA-MB-435
OVCAR-5 ovarian = test system: OVCAR-5 ovarian
NCI-H226 lung = test system: NCI-H226 lung
SF-295 CNS = test system: SF-295 CNS
SW-620 colon = test system: SW-620 colon

Compound	GI50 (HCC-2998 colon)	TGI (HCC-2998 colon)	GI50 (SK-OV-3 ovarian)	TGI (SK-OV-3 ovarian)	GI50 (CCRF-CEM leukemia)	TGI (CCRF-CEM leukemia)	GI50 (NCI-H522 lung)	TGI (NCI-H522 lung)	GI50 (SK-MEL-28 melanoma)	TGI (SK-MEL-28 melanoma)	GI50 (MDA-MB-435)	TGI (MDA-MB-435)	GI50 (OVCAR-5 ovarian)	TGI (OVCAR-5 ovarian)	GI50 (NCI-H226 lung)	TGI (NCI-H226 lung)	GI50 (SF-295 CNS)	TGI (SF-295 CNS)	GI50 (SW-620 colon)	TGI (SW-620 colon)
Cc1cnc(C(=O)Nc2nc3ccc(S(=O)(=O)Nc4ccc(C(C)(C)C)cc4)cc3[nH]2)cn1	1.46 µM	10.7 µM	1.09 µM	17.1 µM	0.415 µM	14.5 µM	0.356 µM	8.9 µM	1.17 µM	14 µM	0.135 µM	0.434 µM	1.41 µM	10.7 µM	0.723 µM	7.35 µM	0.401 µM	4.21 µM	0.422 µM	13.9 µM
COc1ccc2c(c1O)[C@@]13CCCC=C1[C@@H](C2)N(C)CC3	–	> 100 µM	–	> 100 µM	–	> 100 µM	–	76.2 µM	–	> 100 µM	–	> 100 µM	–	> 100 µM	–	> 100 µM	–	> 100 µM	–	> 100 µM
COc1cc2c3c(c4ccc(O)cc4c2cc1OC)[C@@H](O)[C@@H]1CCCN1C3	–	0.002 µM	–	–	–	0.0073 µM	–	0.00781 µM	–	< 0.001 µM	–	0.0072 µM	–	0.0454 µM	–	0.0137 µM	–	0.0655 µM	–	1.25 µM
O=C1c2ccccc2C(=O)c2c1ccc1c3ccccc3n(-c3ccccc3)c21	–	72.6 µM	–	> 100 µM	–	14.5 µM	–	32.4 µM	–	34.2 µM	–	26 µM	–	47 µM	–	44.1 µM	–	37.2 µM	–	48 µM
O=C(O)CN(CCN(CC(=O)O)CC(=O)O)CC(=O)O.[Cu+2].[Na+]	> 100 µM	> 100 µM	23.5 µM	65.2 µM	> 100 µM	> 100 µM	> 100 µM	> 100 µM	> 100 µM	> 100 µM	> 100 µM	> 100 µM	> 100 µM	> 100 µM	> 100 µM	> 100 µM	22.3 µM	63.3 µM	> 100 µM	> 100 µM
O=C(NCCN1CCOCC1)c1cc2c(Oc3ccc(NC(=O)C4(C(=O)Nc5ccc(F)cc5)CC4)cc3)ccnc2[nH]1	15.3 µM	51.9 µM	15.1 µM	> 100 µM	11 µM	> 100 µM	7.69 µM	28.1 µM	4.37 µM	19.4 µM	3.22 µM	23.3 µM	9.94 µM	> 100 µM	3.73 µM	50.3 µM	0.47 µM	15.5 µM	15.3 µM	> 100 µM
O=C(O)CCCCCNCc1cc2cc3c(cc2c2cc(OCc4ccccc4)ccc12)OCO3	1.71 µM	3.37 µM	5.11 µM	19.9 µM	–	–	1.76 µM	3.45 µM	1.78 µM	3.33 µM	1.78 µM	3.3 µM	2.33 µM	5.23 µM	4.37 µM	21.9 µM	1.84 µM	3.61 µM	1.5 µM	3.1 µM
CC[C@H](C)[C@H](NC(=O)CN(C)C)C(=O)N(C)[C@H](C[C@@H](OC(C)=O)c1nc(C(=O)NC23C4C5C2C2C3C4C52C(=O)OC)cs1)C(C)C (stereo partly drawn)	0.631 µM	> 33.2 µM	4.15 µM	> 33.2 µM	0.18 µM	> 33.2 µM	0.11 µM	> 10.8 µM	1.38 µM	> 33.2 µM	0.0409 µM	1.07 µM	> 10.4 µM	> 33.2 µM	> 29 µM	> 33.2 µM	0.552 µM	> 33.2 µM	0.226 µM	> 33.2 µM
CCCCCn1sc(=O)n(Cc2ccc(CNC(=O)C(C)c3ccc(CC(C)C)cc3)cc2)c1=O (stereo not drawn)	1.87 µM	3.42 µM	3.5 µM	14.7 µM	0.337 µM	–	0.162 µM	2.11 µM	1.43 µM	2.75 µM	0.876 µM	2.17 µM	1.56 µM	3.19 µM	1.3 µM	2.67 µM	1.74 µM	3.92 µM	0.37 µM	1.46 µM
COc1cc(/C=N\Nc2ccccc2)ccc1OC(=O)c1ccccc1	3.83 µM	17.1 µM	45.6 µM	> 100 µM	2.44 µM	> 100 µM	1.02 µM	> 76.6 µM	19.2 µM	> 93.1 µM	1.25 µM	> 100 µM	12.8 µM	> 100 µM	10.2 µM	> 77.6 µM	1.92 µM	10.7 µM	0.736 µM	19.9 µM
CCc1ccc([OH2+])c(C(=O)[O-])c1.CCc1ccc([OH2+])c(C(=O)[O-])c1.CCc1ccc([OH2+])c(C(=O)[O-])c1.CCc1ccc([OH2+])c(C(=O)[O-])c1.[Cu+2].[Cu+2]	64.8 µM	> 100 µM	23.9 µM	> 68.2 µM	–	–	> 86 µM	> 100 µM	> 100 µM	> 100 µM	49.3 µM	> 100 µM	32.3 µM	70.2 µM	> 50.2 µM	> 100 µM	50.8 µM	> 100 µM	> 100 µM	> 100 µM
COc1cc2c3c(c4cc(OC)c(OC)cc4c2cc1OC)CN1CCC[C@H]1C3	0.0356 µM and < 0.01 µM	0.3 µM and 0.656 µM	–	0.172 µM	0.0524 µM and < 0.0104 µM	0.977 µM and 4.84 µM	–	1.01 µM and 0.54 µM	–	–	0.0298 µM and < 0.0147 µM	0.494 µM and 1.29 µM	–	0.681 µM	–	1.06 µM	0.0357 µM and 0.01 µM	–	0.0734 µM and < 0.0124 µM	–
COc1cc2c(cc1O)CCN[C@@]21CS[C@H]2c3c(OC(C)=O)c(C)c4c(c3C(COC1=O)N1C2C2NC(Cc3cc(C)c(OC)c(O)c32)[C@@H]1O)OCO4 (stereo partly drawn)	–	–	4.5 ng/mL	10.9 µM and 1.47 µg/mL	4.5 ng/mL	> 100 µM and 0.000154 µg/mL and 0.0045 µg/mL	4.5 ng/mL	< 10 nM and 0.0045 µg/mL	–	< 10 nM and 3.1e-07 µg/mL and 0.0045 µg/mL	–	< 0.01 µM	–	14.6 µM and 7.3e-07 µg/mL and 0.0045 µg/mL	–	0.000273 ng/mL	4.5 ng/mL	1.09 µM and 5.17 µg/mL	4.5 ng/mL	7.33 µM and 4.98 µg/mL
CCCCCCCCCC(=O)Oc1ccc(/C(=C(/C)c2ccccc2)c2ccc(OCCN3CCCC3)cc2)cc1	8.66 µM	17.2 µM	7.36 µM	14.8 µM	9.51 µM	22.3 µM	9.36 µM	18.4 µM	–	–	7.47 µM	14.1 µM	8.56 µM	16.5 µM	9.42 µM	18.5 µM	7.93 µM	15.1 µM	8.57 µM	15.6 µM
